Laboratory results as given in PMC5218480 (PLoS ONE, 2017).

Test system: MV-4-11 cells
Assay: Gene expression microarray analysis (Affymetrix PrimeView) and GSEA
Format: cell-based, human
Design: RFU PODN (11730768_x_at) / Fold change /veh PODN (11730768_x_at) / RFU LINC00158 (11744669_a_at) / Fold change /veh LINC00158 (11744669_a_at) / RFU DUSP10 (11751237_a_at) / Fold change /veh DUSP10 (11751237_a_at) / RFU ID3 (11757404_x_at) / Fold change /veh ID3 (11757404_x_at) / RFU PLEKHG5 (11737974_s_at) / Fold change /veh PLEKHG5 (11737974_s_at) / RFU LRRC4B (11730491_at) / Fold change /veh LRRC4B (11730491_at) / RFU GIMAP4 (11747438_a_at) / Fold change /veh GIMAP4 (11747438_a_at) / RFU KRT8 (11758183_x_at) / Fold change /veh KRT8 (11758183_x_at) / RFU CNN1 (11734310_a_at) / Fold change /veh CNN1 (11734310_a_at) / RFU VPS37D (11726825_at) / Fold change /veh VPS37D (11726825_at) / RFU C10orf10 (11716522_x_at) / Fold change /veh C10orf10 (11716522_x_at) / RFU KIR2DL2 /// KIR2DL4 /// KIR2DL5A /// KIR2DL5B /// KIR2DS1 /// KIR2DS2 /// KIR2DS3 /// KIR2DS4 /// KIR3DL3 /// KIR3DL3 /// KIR3DS1 (11738374_at) / Fold change /veh KIR2DL2 /// KIR2DL4 /// KIR2DL5A /// KIR2DL5B /// KIR2DS1 /// KIR2DS2 /// KIR2DS3 /// KIR2DS4 /// KIR3DL3 /// KIR3DL3 /// KIR3DS1 (11738374_at) / RFU C1QL1 (11718748_at) / Fold change /veh C1QL1 (11718748_at) / RFU TMPRSS4 (11747572_a_at) / Fold change /veh TMPRSS4 (11747572_a_at) / RFU HAMP (11756126_x_at) / Fold change /veh HAMP (11756126_x_at) / RFU RNFT2 (11725882_a_at) / Fold change /veh RNFT2 (11725882_a_at) / RFU NR4A2 (11747474_a_at) / Fold change /veh NR4A2 (11747474_a_at) / RFU ABCC12 (11746883_a_at) / Fold change /veh ABCC12 (11746883_a_at) / RFU TMEM136 (11760407_x_at) / Fold change /veh TMEM136 (11760407_x_at) / RFU CLDN22 /// WWC2 (11732394_at) / Fold change /veh CLDN22 /// WWC2 (11732394_at) / RFU HLA-DPB1 (11760878_x_at) / Fold change /veh HLA-DPB1 (11760878_x_at) / RFU SPINT1 (11716480_a_at) / Fold change /veh SPINT1 (11716480_a_at) / RFU GAP43 (11754022_s_at) / Fold change /veh GAP43 (11754022_s_at) / RFU A4GNT (11735810_at) / Fold change /veh A4GNT (11735810_at) / RFU PRB3 (11715151_x_at) / Fold change /veh PRB3 (11715151_x_at) / RFU TUBB4B (11761932_at) / Fold change /veh TUBB4B (11761932_at) / RFU CAPN14 (11732068_a_at) / Fold change /veh CAPN14 (11732068_a_at) / RFU TMCC2 (11721928_a_at) / Fold change /veh TMCC2 (11721928_a_at) / RFU IRGQ (11745062_a_at) / Fold change /veh IRGQ (11745062_a_at) / RFU FAM174B (11720279_a_at) / Fold change /veh FAM174B (11720279_a_at) / RFU TMPRSS4 (11748680_a_at) / Fold change /veh TMPRSS4 (11748680_a_at) / RFU FAM212B (11763350_a_at) / Fold change /veh FAM212B (11763350_a_at) / RFU PLEKHG5 (11743358_a_at) / Fold change /veh PLEKHG5 (11743358_a_at) / RFU ZSCAN30 (11745921_a_at) / Fold change /veh ZSCAN30 (11745921_a_at) / RFU CMKLR1 (11741424_a_at) / Fold change /veh CMKLR1 (11741424_a_at) / RFU LOC101060620 /// MAPK8IP1 (11723275_at) / Fold change /veh LOC101060620 /// MAPK8IP1 (11723275_at) / RFU SPTSSB (11747773_x_at) / Fold change /veh SPTSSB (11747773_x_at) / RFU PRSS12 (11739890_at) / Fold change /veh PRSS12 (11739890_at) / RFU BIN1 (11741810_x_at) / Fold change /veh BIN1 (11741810_x_at) / RFU WNT11 (11732464_a_at) / Fold change /veh WNT11 (11732464_a_at) / RFU C10orf10 (11716521_a_at) / Fold change /veh C10orf10 (11716521_a_at) / RFU C5orf56 (11738089_at) / Fold change /veh C5orf56 (11738089_at) / RFU CYB561 (11721691_x_at) / Fold change /veh CYB561 (11721691_x_at) / RFU ANKRD19P (11752326_a_at) / Fold change /veh ANKRD19P (11752326_a_at) / RFU OR2T12 /// OR2T33 /// OR2T8 (11738714_s_at) / Fold change /veh OR2T12 /// OR2T33 /// OR2T8 (11738714_s_at) / RFU VCAN (11748164_a_at) / Fold change /veh VCAN (11748164_a_at) / RFU JSRP1 (11732532_at) / Fold change /veh JSRP1 (11732532_at) / RFU KRTAP10-11 (11738290_x_at) / Fold change /veh KRTAP10-11 (11738290_x_at) / RFU MYO3A (11730013_a_at) / Fold change /veh MYO3A (11730013_a_at) / RFU EBF3 (11725865_a_at) / Fold change /veh EBF3 (11725865_a_at) / RFU CAMK2N1 (11719241_x_at) / Fold change /veh CAMK2N1 (11719241_x_at) / RFU C5orf56 (11738088_a_at) / Fold change /veh C5orf56 (11738088_a_at) / RFU OLFML3 (11715873_a_at) / Fold change /veh OLFML3 (11715873_a_at) / RFU LOC100653217 /// NTM (11731650_a_at) / Fold change /veh LOC100653217 /// NTM (11731650_a_at) / RFU MAPK11 (11762145_a_at) / Fold change /veh MAPK11 (11762145_a_at) / RFU FIZ1 (11724087_x_at) / Fold change /veh FIZ1 (11724087_x_at) / RFU OASL (11726364_x_at) / Fold change /veh OASL (11726364_x_at) / RFU SOX15 (11748057_x_at) / Fold change /veh SOX15 (11748057_x_at) / RFU CD79A (11719716_a_at) / Fold change /veh CD79A (11719716_a_at) / RFU HIST1H1D (11736915_at) / Fold change /veh HIST1H1D (11736915_at) / RFU CASKIN2 (11723855_a_at) / Fold change /veh CASKIN2 (11723855_a_at) / RFU LOC730098 (11760151_x_at) / Fold change /veh LOC730098 (11760151_x_at) / RFU OR4N2 (11742367_at) / Fold change /veh OR4N2 (11742367_at) / RFU PRRT2 (11749266_a_at) / Fold change /veh PRRT2 (11749266_a_at) / RFU SNX32 (11753110_a_at) / Fold change /veh SNX32 (11753110_a_at) / RFU CDHR5 (11726645_a_at) / Fold change /veh CDHR5 (11726645_a_at) / RFU RCAN1 (11760418_a_at) / Fold change /veh RCAN1 (11760418_a_at) / RFU FAM167A (11723789_a_at) / Fold change /veh FAM167A (11723789_a_at) / RFU FAM26E (11764081_at) / Fold change /veh FAM26E (11764081_at) / RFU ISYNA1 (11749810_s_at) / Fold change /veh ISYNA1 (11749810_s_at) / RFU ACY1 (11761880_at) / Fold change /veh ACY1 (11761880_at) / RFU 11764098_at / Fold change /veh 11764098_at / RFU SAMD14 (11745864_x_at) / Fold change /veh SAMD14 (11745864_x_at) / RFU NPB (11741838_a_at) / Fold change /veh NPB (11741838_a_at) / RFU TMPRSS6 (11731388_a_at) / Fold change /veh TMPRSS6 (11731388_a_at) / RFU KRTAP10-2 (11738614_at) / Fold change /veh KRTAP10-2 (11738614_at) / RFU ARHGAP8 /// PRR5-ARHGAP8 (11727945_x_at) / Fold change /veh ARHGAP8 /// PRR5-ARHGAP8 (11727945_x_at) / RFU KRTAP5-7 /// NADSYN1 (11734609_at) / Fold change /veh KRTAP5-7 /// NADSYN1 (11734609_at) / RFU RASL12 (11751679_a_at) / Fold change /veh RASL12 (11751679_a_at) / RFU CDKN2B (11736163_a_at) / Fold change /veh CDKN2B (11736163_a_at) / RFU PRF1 (11729649_at) / Fold change /veh PRF1 (11729649_at) / RFU, ZNF638 /// ZNF638-IT1 / Fold change vs veh, ZNF638 /// ZNF638-IT1 / RFU, PANK3 / Fold change vs veh, PANK3 / RFU, SH3YL1 / Fold change vs veh, SH3YL1 / RFU, ZEB2 / Fold change vs veh, ZEB2 / RFU, NRIP1 / Fold change vs veh, NRIP1 / RFU, PTTG1IP / Fold change vs veh, PTTG1IP / RFU, CAPN2 / Fold change vs veh, CAPN2 / RFU, MED14 / Fold change vs veh, MED14 / RFU, SNORA58 / Fold change vs veh, SNORA58 / RFU, C1orf63 / Fold change vs veh, C1orf63 / RFU, LRRFIP1 / Fold change vs veh, LRRFIP1 / RFU, NDUFAF7 / Fold change vs veh, NDUFAF7 / RFU, SLC12A2 / Fold change vs veh, SLC12A2 / RFU, IBTK / Fold change vs veh, IBTK / RFU, ESF1 / Fold change vs veh, ESF1 / Fold change vs veh, TMEM50B / RFU, TAOK1 / Fold change vs veh, TAOK1 / RFU, ACBD3 / Fold change vs veh, ACBD3 / RFU, TMA16 / Fold change vs veh, TMA16 / RFU, RWDD3 / Fold change vs veh, RWDD3 / RFU, BCAT1 / Fold change vs veh, BCAT1 / RFU, EDEM3 / Fold change vs veh, EDEM3 / RFU, TMEM33 / Fold change vs veh, TMEM33 / RFU, WDR75 / Fold change vs veh, WDR75 / RFU, AHCTF1 / Fold change vs veh, AHCTF1 / RFU, TFRC / Fold change vs veh, TFRC / RFU, ZDHHC17 / Fold change vs veh, ZDHHC17 / RFU, NOM1 / Fold change vs veh, NOM1 / RFU, ARL8B / Fold change vs veh, ARL8B / RFU, ZBTB11 / Fold change vs veh, ZBTB11 / RFU, TAMM41 / Fold change vs veh, TAMM41 / RFU, KIAA1704 /// LOC100996395 / Fold change vs veh, KIAA1704 /// LOC100996395 / RFU, ING1 / Fold change vs veh, ING1 / RFU, TRMT61B / Fold change vs veh, TRMT61B / RFU, FUBP3 / Fold change vs veh, FUBP3 / RFU, TP53 / Fold change vs veh, TP53 / RFU, TNKS2 / Fold change vs veh, TNKS2 / RFU, ZFP14 / Fold change vs veh, ZFP14 / RFU, ACTR2 / Fold change vs veh, ACTR2 / RFU, PPP3R1 / Fold change vs veh, PPP3R1 / RFU, PIK3R1 / Fold change vs veh, PIK3R1 / RFU, HNRNPA1 / Fold change vs veh, HNRNPA1 / RFU, RNF170 / Fold change vs veh, RNF170 / RFU, ZNF28 / Fold change vs veh, ZNF28 / RFU, RNGTT / Fold change vs veh, RNGTT / RFU, OGT / Fold change vs veh, OGT / RFU, BRD1 / Fold change vs veh, BRD1 / RFU, MARS / Fold change vs veh, MARS / RFU, ZNF655 / Fold change vs veh, ZNF655 / RFU, FAHD1 / Fold change vs veh, FAHD1 / RFU, BDP1 / Fold change vs veh, BDP1 / RFU, LRRCC1 / Fold change vs veh, LRRCC1 / RFU, ARID1A / Fold change vs veh, ARID1A / RFU, ZNF146 / Fold change vs veh, ZNF146 / RFU, ZNF330 / Fold change vs veh, ZNF330 / RFU, GPN3 / Fold change vs veh, GPN3 / RFU, C9orf123 / Fold change vs veh, C9orf123 / RFU, N4BP2L2 / Fold change vs veh, N4BP2L2 / RFU, ARFIP1 / Fold change vs veh, ARFIP1 / RFU, FAM179B / Fold change vs veh, FAM179B / RFU, BCL10 / Fold change vs veh, BCL10 / RFU, UHRF1BP1L / Fold change vs veh, UHRF1BP1L / RFU, BET1 / Fold change vs veh, BET1 / RFU, CNOT2 / Fold change vs veh, CNOT2 / RFU, ZNF268 / Fold change vs veh, ZNF268 / Fold change vs veh, ZNF507 / RFU, DGCR2 / Fold change vs veh, DGCR2 / RFU, WDSUB1 / Fold change vs veh, WDSUB1 / Fold change vs veh, HSP90B1 /// MIR3652 / RFU, ADSS / Fold change vs veh, ADSS / RFU, GK / Fold change vs veh, GK / RFU, ZNF148 / Fold change vs veh, ZNF148 / RFU, TAF9 / Fold change vs veh, TAF9 / RFU, SLC1A5 / Fold change vs veh, SLC1A5 / RFU, SLMO2 / Fold change vs veh, SLMO2 / RFU, ABCC4 / Fold change vs veh, ABCC4 / RFU, LOC101060439 /// RAP1B / Fold change vs veh, LOC101060439 /// RAP1B / RFU, RFX7 / Fold change vs veh, RFX7 / RFU, GTPBP10 / Fold change vs veh, GTPBP10 / RFU, CNEP1R1 / Fold change vs veh, CNEP1R1 / RFU, BIVM-ERCC5 /// ERCC5 / Fold change vs veh, BIVM-ERCC5 /// ERCC5 / RFU, ILF3 / Fold change vs veh, ILF3 / RFU 11762660_at / Fold change /veh 11762660_at / RFU VCAN (11757783_s_at) / Fold change /veh VCAN (11757783_s_at) / RFU DDX43 (11728927_at) / Fold change /veh DDX43 (11728927_at) / RFU KRT8 (11758188_x_at) / Fold change /veh KRT8 (11758188_x_at) / RFU NKD1 (11759106_at) / Fold change /veh NKD1 (11759106_at) / RFU SRD5A1 (11742802_a_at) / Fold change /veh SRD5A1 (11742802_a_at) / RFU TPSAB1 /// TPSB2 (11721975_s_at) / Fold change /veh TPSAB1 /// TPSB2 (11721975_s_at) / RFU GSTM3 (11746129_a_at) / Fold change /veh GSTM3 (11746129_a_at) / RFU IL23R (11737362_x_at) / Fold change /veh IL23R (11737362_x_at) / RFU TMEM51 (11727254_a_at) / Fold change /veh TMEM51 (11727254_a_at) / RFU PIWIL2 (11732686_x_at) / Fold change /veh PIWIL2 (11732686_x_at) / RFU ORM1 (11744905_x_at) / Fold change /veh ORM1 (11744905_x_at) / RFU CCDC152 (11743942_at) / Fold change /veh CCDC152 (11743942_at) / RFU ECM1 (11717891_a_at) / Fold change /veh ECM1 (11717891_a_at) / RFU IL23R (11748794_a_at) / Fold change /veh IL23R (11748794_a_at) / RFU TNFAIP8L3 (11732012_x_at) / Fold change /veh TNFAIP8L3 (11732012_x_at) / RFU MBOAT4 (11741988_at) / Fold change /veh MBOAT4 (11741988_at) / RFU 11764193_at / Fold change /veh 11764193_at / RFU TMEM53 (11763286_at) / Fold change /veh TMEM53 (11763286_at) / RFU MAGEB2 (11727129_at) / Fold change /veh MAGEB2 (11727129_at) / RFU TMEM200A (11744735_a_at) / Fold change /veh TMEM200A (11744735_a_at) / RFU CCDC152 (11751479_a_at) / Fold change /veh CCDC152 (11751479_a_at) / RFU FAM211A (11726209_a_at) / Fold change /veh FAM211A (11726209_a_at) / RFU RGS16 (11746705_a_at) / Fold change /veh RGS16 (11746705_a_at) / RFU VCAN (11755009_s_at) / Fold change /veh VCAN (11755009_s_at) / RFU RHOB (11743442_s_at) / Fold change /veh RHOB (11743442_s_at) / RFU RGS16 (11720943_a_at) / Fold change /veh RGS16 (11720943_a_at) / RFU RGS16 (11720944_at) / Fold change /veh RGS16 (11720944_at) / RFU, VPS4B / Fold change vs veh, VPS4B / RFU, CREB1 / Fold change vs veh, CREB1 / RFU, DNAJC13 / Fold change vs veh, DNAJC13 / RFU, GNAQ / Fold change vs veh, GNAQ / RFU, CDK5R1 / Fold change vs veh, CDK5R1 / RFU, ZRANB3 / Fold change vs veh, ZRANB3 / RFU, CUL4A / Fold change vs veh, CUL4A / RFU, CCNY / Fold change vs veh, CCNY / RFU, UFL1 / Fold change vs veh, UFL1 / RFU, COG3 / Fold change vs veh, COG3 / RFU, DIAPH2 / Fold change vs veh, DIAPH2 / RFU, SKA2 / Fold change vs veh, SKA2 / RFU, AFF3 / Fold change vs veh, AFF3 / RFU, LMF1 / Fold change vs veh, LMF1 / RFU, IPO11 / Fold change vs veh, IPO11 / RFU, DFFB / Fold change vs veh, DFFB / RFU, FOXP1 / Fold change vs veh, FOXP1 / RFU, CARD8 / Fold change vs veh, CARD8 / RFU, STRN3 / Fold change vs veh, STRN3 / RFU, ADK / Fold change vs veh, ADK / RFU, RASSF2 / Fold change vs veh, RASSF2 / RFU, WIPF1 / Fold change vs veh, WIPF1 / RFU, LARP1B / Fold change vs veh, LARP1B / RFU, RASA1 / Fold change vs veh, RASA1 / RFU, RB1 / Fold change vs veh, RB1 / RFU, PPFIA1 / Fold change vs veh, PPFIA1 / RFU, MAT2A / Fold change vs veh, MAT2A / RFU, CCT5 / Fold change vs veh, CCT5 / RFU, WDR92 / Fold change vs veh, WDR92 / RFU, CUX1 / Fold change vs veh, CUX1 / RFU, TTC7A / Fold change vs veh, TTC7A / RFU, TMEM135 / Fold change vs veh, TMEM135 / RFU, DEPTOR / Fold change vs veh, DEPTOR / RFU, CPM / Fold change vs veh, CPM / RFU, DNAJB6 / Fold change vs veh, DNAJB6 / RFU, CACNA2D3 / Fold change vs veh, CACNA2D3 / RFU, DTX4 / Fold change vs veh, DTX4 / RFU, TFCP2 / Fold change vs veh, TFCP2 / RFU, GMCL1 /// GMCL1P1 / Fold change vs veh, GMCL1 /// GMCL1P1 / RFU, AEBP2 / Fold change vs veh, AEBP2 / RFU, SNHG1 /// SNORD22 /// SNORD25 /// SNORD26 /// SNORD27 /// SNORD28 /// SNORD29 /// SNORD31 / Fold change vs veh, SNHG1 /// SNORD22 /// SNORD25 /// SNORD26 /// SNORD27 /// SNORD28 /// SNORD29 /// SNORD31 / Fold change (Aza/veh), C12orf56 (ProbeSet 11735607_a_at) / Fold change (ACY-1035/veh), C12orf56 (ProbeSet 11735607_a_at) / Fold change (Aza/veh), FGFR1OP (ProbeSet 11751329_s_at) / Fold change (ACY-1035/veh), FGFR1OP (ProbeSet 11751329_s_at) / Fold change (Aza/veh), VPS36 (ProbeSet 11739960_a_at) / Fold change (ACY-1035/veh), VPS36 (ProbeSet 11739960_a_at) / RFU SYPL1 (11715823_x_at) / Fold change /veh SYPL1 (11715823_x_at) / RFU IGFBP7 (11715501_s_at) / Fold change /veh IGFBP7 (11715501_s_at) / RFU REEP3 (11722064_at) / Fold change /veh REEP3 (11722064_at) / RFU IGLL1 (11728026_x_at) / Fold change /veh IGLL1 (11728026_x_at): dose or concentration left out as unconfirmed
Conditions: MV-4-11 cells, 48 hours

For Nc1ccc(-c2cccs2)cc1NC(=O)c1ccc2c(c1)cc(C1CC1)n2CCN1CCOCC1 [ACY-1035], the “Fold change /veh EBF3 (11725865_a_at)” value was 1.09.
